Test system: NCI-H1876 complex spheroid growth, % test/control
Assay: Anticancer human tumor NCI-H1876 cell line growth inhibition [Asc];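 note: compound exposure lasted 7 days starting three days after seeding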;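 for viability, T/C: 100% = DMSO vehicle control wells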
Conditions: for IC50: curve of first compound; for viability, T/C: stronger effect = lower value
Procedure, shortened: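 Concentration series start at each agent's clinical Cmax, or at 10 microM when none is established, and drop in half-log steps; agents are applied alone or together to complex spheroids built with HUVEC and hMSC.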

CCN1C(C(=O)NC23CCC(C(=O)O)(CC2)CC3)C(c2cccc(Cl)c2F)C2(C(=O)Nc3cc(Cl)ccc32)C12CCCCC2 (centres undefined) + CNC(C)C(=O)NC1CN(S(=O)(=O)c2cccc(S(=O)(=O)N3CCC4CCC(C(=O)NC(c5ccccc5)c5ccccc5)N4C(=O)C(NC(=O)C(C)NC)C3)c2)CCC2CCC(C(=O)NC(c3ccccc3)c3ccccc3)N2C1=O was tested, and the IC50 (second compound 0.00316 µM) was over 3000 nM, the IC50 (second compound 0.01 µM) was over 3000 nM and the IC50 (second compound 0.0316 µM) was over 3000 nM. For the same molecule, the IC50 (second compound 0.1 µM) was over 3000 nM, the IC50 (second compound 0.316 µM) was over 3000 nM and the IC50 (second compound 1 µM) was over 3000 nM. The viability, T/C (second compound 0.00316 µM, first compound 0.00949 µM) was 115%, the viability, T/C (second compound 0.00316 µM, first compound 0.03 µM) was 98% and the viability, T/C (second compound 0.00316 µM, first compound 0.0949 µM) was 111%. For the same molecule, the viability, T/C (second compound 0.00316 µM, first compound 0.3 µM) was 101%, the viability, T/C (second compound 0.00316 µM, first compound 0.949 µM) was 123% and the viability, T/C (second compound 0.00316 µM, first compound 3 µM) was 107%. For the same molecule, the viability, T/C (second compound 0.01 µM, first compound 0.00949 µM) was 110%, the viability, T/C (second compound 0.01 µM, first compound 0.03 µM) was 99.9% and the viability, T/C (second compound 0.01 µM, first compound 0.0949 µM) was 104%. For the same molecule, the viability, T/C (second compound 0.01 µM, first compound 0.3 µM) was 101%, the viability, T/C (second compound 0.01 µM, first compound 0.949 µM) was 120% and the viability, T/C (second compound 0.01 µM, first compound 3 µM) was 105%. The viability, T/C (second compound 0.0316 µM, first compound 0.00949 µM) was 105%, the viability, T/C (second compound 0.0316 µM, first compound 0.03 µM) was 101% and the viability, T/C (second compound 0.0316 µM, first compound 0.0949 µM) was 115%. It also gave a viability, T/C (second compound 0.0316 µM, first compound 0.3 µM) of 104%, a viability, T/C (second compound 0.0316 µM, first compound 0.949 µM) of 132% and a viability, T/C (second compound 0.0316 µM, first compound 3 µM) of 109%. It also gave a viability, T/C (second compound 0.1 µM, first compound 0.00949 µM) of 92.5%, a viability, T/C (second compound 0.1 µM, first compound 0.03 µM) of 111% and a viability, T/C (second compound 0.1 µM, first compound 0.0949 µM) of 101%. For the same molecule, the viability, T/C (second compound 0.1 µM, first compound 0.3 µM) was 102%, the viability, T/C (second compound 0.1 µM, first compound 0.949 µM) was 122% and the viability, T/C (second compound 0.1 µM, first compound 3 µM) was 103%. It also gave a viability, T/C (second compound 0.316 µM, first compound 0.00949 µM) of 104%, a viability, T/C (second compound 0.316 µM, first compound 0.03 µM) of 102% and a viability, T/C (second compound 0.316 µM, first compound 0.0949 µM) of 98.3%. The viability, T/C (second compound 0.316 µM, first compound 0.3 µM) was 105%, the viability, T/C (second compound 0.316 µM, first compound 0.949 µM) was 131% and the viability, T/C (second compound 0.316 µM, first compound 3 µM) was 107%. It also gave a viability, T/C (second compound 1 µM, first compound 0.00949 µM) of 112%, a viability, T/C (second compound 1 µM, first compound 0.03 µM) of 91.8% and a viability, T/C (second compound 1 µM, first compound 0.0949 µM) of 109%. For the same molecule, the viability, T/C (second compound 1 µM, first compound 0.3 µM) was 110%, the viability, T/C (second compound 1 µM, first compound 0.949 µM) was 128% and the viability, T/C (second compound 1 µM, first compound 3 µM) was 97.9%.
O=C(c1ccc(F)c(F)c1Nc1ccc(I)cc1F)N1CC(O)([C@@H]2CCCCN2)C1 + Cc1c(S(C)(=O)=O)c(-c2cc(F)cc(N3CCN(c4ccc(NS(=O)(=O)c5ccc(NC(CCN6CCC(C(=O)OCCCP(=O)(O)O)CC6)CSc6ccccc6)c(S(=O)(=O)C(F)(F)F)c5)cc4)CC3)c2)c(-c2ccc(Cl)cc2)n1C(C)C showed an IC50 (second compound 0.0316 µM) of over 1000 nM, an IC50 (second compound 0.1 µM) of over 1000 nM and an IC50 (second compound 0.316 µM) of over 1000 nM. It also gave an IC50 (second compound 1 µM) of over 1000 nM, an IC50 (second compound 3.16 µM) of over 1000 nM and an IC50 (second compound 10 µM) of over 1000 nM. For the same molecule, the viability, T/C (second compound 0.0316 µM, first compound 0.00316 µM) was 102%, the viability, T/C (second compound 0.0316 µM, first compound 0.01 µM) was 98.9% and the viability, T/C (second compound 0.0316 µM, first compound 0.0316 µM) was 108%. For the same molecule, the viability, T/C (second compound 0.0316 µM, first compound 0.1 µM) was 92.3%, the viability, T/C (second compound 0.0316 µM, first compound 0.316 µM) was 85.3% and the viability, T/C (second compound 0.0316 µM, first compound 1 µM) was 71.7%. It also gave a viability, T/C (second compound 0.1 µM, first compound 0.00316 µM) of 95.4%, a viability, T/C (second compound 0.1 µM, first compound 0.01 µM) of 97.5% and a viability, T/C (second compound 0.1 µM, first compound 0.0316 µM) of 94.6%. The viability, T/C (second compound 0.1 µM, first compound 0.1 µM) was 97.6%, the viability, T/C (second compound 0.1 µM, first compound 0.316 µM) was 86.9% and the viability, T/C (second compound 0.1 µM, first compound 1 µM) was 81%. It also gave a viability, T/C (second compound 0.316 µM, first compound 0.00316 µM) of 96.5%, a viability, T/C (second compound 0.316 µM, first compound 0.01 µM) of 102% and a viability, T/C (second compound 0.316 µM, first compound 0.0316 µM) of 89.5%. The viability, T/C (second compound 0.316 µM, first compound 0.1 µM) was 102%, the viability, T/C (second compound 0.316 µM, first compound 0.316 µM) was 84.2% and the viability, T/C (second compound 0.316 µM, first compound 1 µM) was 78.4%. The viability, T/C (second compound 1 µM, first compound 0.00316 µM) was 101%, the viability, T/C (second compound 1 µM, first compound 0.01 µM) was 102% and the viability, T/C (second compound 1 µM, first compound 0.0316 µM) was 93.9%. For the same molecule, the viability, T/C (second compound 1 µM, first compound 0.1 µM) was 92.1%, the viability, T/C (second compound 1 µM, first compound 0.316 µM) was 92% and the viability, T/C (second compound 1 µM, first compound 1 µM) was 77.1%. It also gave a viability, T/C (second compound 3.16 µM, first compound 0.00316 µM) of 109%, a viability, T/C (second compound 3.16 µM, first compound 0.01 µM) of 98.6% and a viability, T/C (second compound 3.16 µM, first compound 0.0316 µM) of 91%. The viability, T/C (second compound 3.16 µM, first compound 0.1 µM) was 85.8%, the viability, T/C (second compound 3.16 µM, first compound 0.316 µM) was 94.2% and the viability, T/C (second compound 3.16 µM, first compound 1 µM) was 74.9%. It also gave a viability, T/C (second compound 10 µM, first compound 0.00316 µM) of 103%, a viability, T/C (second compound 10 µM, first compound 0.01 µM) of 92.2% and a viability, T/C (second compound 10 µM, first compound 0.0316 µM) of 92.5%. The viability, T/C (second compound 10 µM, first compound 0.1 µM) was 102%, the viability, T/C (second compound 10 µM, first compound 0.316 µM) was 93.5% and the viability, T/C (second compound 10 µM, first compound 1 µM) was 79.5%.

— PubChem BioAssay AID1963441 (Molecular Pharmacology Branch, DTP, NCI, 2024)
